Assays:
rat C6 glioma cells = experiment: GDNF production promoting action in rat C6 glioma cells (ELISA of culture supernatant); assay type: cell-based; settings: Rattus norvegicus, C6 glioma, 48 h; concentration which causes 50% increase of GDNF relative to the control group; cultured 2 days with test compound; GDNF in culture supernatant by ELISA
Procedure: Using rat C6 glioma cells, the GDNF production promoting action of the compound of the present invention was evaluated.
Rat C6 glioma cells (ATCC) were grown in Dulbecco's Modified Eagle's Medium (DMEM) containing 10% FBS (Fetal Bovine Serum) in a collagen type 1 coated 75 cm^2 culture flask (SUMITOMO BAKELITE Co., Ltd.) until near confluent, detached by trypsin treatment and washed once with DMEM containing 10% FBS.
The cells after washing were diluted with 10% FBS-containing DMEM to a concentration of 5×10^4/mL and seeded at 0.3 mL/well in each well of collagen type 1 coated 48 well culture dish (SUMITOMO BAKELITE Co., Ltd.). After 3 days, the culture in the culture dish was placed in a 1% BSA (bovine serum albumin, Sigma)-containing DMEM medium supplemented with various concentrations of test compound, and further cultured for 2 days. The culture supernatant was recovered and preserved at −80° C. until measurement of GDNF.
The content of GDNF in the culture supernatant was measured by the following ELISA Method.
Anti-GDNF antibody (MAB212, R&D) was diluted with TBS (Tris buffered physiological saline: 25 mmol/L Tris-HCl (pH 8.0), 150 mmol/L NaCl) to 2 μg/mL and dispensed at 0.1 mL/well to each well of a 96-well immunoplate. The 96-well immunoplate was incubated overnight at 4° C. and washed once with TBS containing Tween 20 at 0.05% (hereinafter to be abbreviated as TBST). A blocking solution (TBS containing 1% BSA and 5% sucrose) was added at 0.2 mL/well to each well after washing, and the plate was incubated at room temperature for 1 hr., after which each well was washed twice with TBST. The culture supernatant (0.1 mL) of the aforementioned C6 cells was added to each well after washing and the plate was incubated at room temperature for 3 hrs., after which the wells were washed 5 times with TBST. The 500-fold diluted anti-GDNF antibody (G2791, Promega) was added by 0.1 mL to each well after washing, incubated at room temperature for 2 hrs. and washed 5 times with TBST. A 5000-fold diluted horseradish peroxidase-labeled anti-chicken IgY antibody (G1351, Promega) was added at 0.1 mL/well to each well after washing, incubated at room temperature for 2 hrs. and washed 5 times with TBST. A substrate solution (TMB substrate solution, BIO-RAD) was added at 0.1 mL/well to each well after washing and allowed to develop color at room temperature for 8 min. To stop the reaction, 0.1 mL of 1 mol/L phosphoric acid was added to each well in coloring developing reaction. The absorbance of the reaction solution at 450 nm wavelength was measured.
In the same manner as above except the test compound was not used, the ELISA Method was performed and this was used as a control group.
Using various concentrations of GDNF (Promega), ELISA Method was performed in the same manner as above and standard line was prepared.
From the aforementioned absorbance and standard line, GDNF content in a sample was calculated and the concentration (EC50), which causes 50% increase of GDNF relative to the control group was calculated from the regression line.

PC12 cells = experiment: neuroprotective action (neurite network formation) in PC12 cells; assay type: cell-based; settings: test compound 0.3-3.0 μmol/L, two days, DMEM with 0.5% FCS and 2 ng/mL NGF; observed under a microscope
Procedure: Using PC12 cells, the neuroprotective action of the compound of the present invention was evaluated.
PC12 cells were precultured for one day in a DMEM (Dulbecco's Modified Eagle's Medium) culture solution containing 10% FCS (Fetal Calf Serum) in an incubator at 37° C., 5% CO2, and seeded at 5×10^3/well in a 24 well plate (Falcon) in the same medium. After the cells adhered to the bottom surface, the culture was changed to a DMEM culture solution containing 0.5% FCS and 2 ng/mL of NGF (Wako Pure Chemical Industries, Ltd.). After culturing overnight, the test compound was added at a concentration of 0.3-3.0 μmol/L and the cells were cultured for two more days. Gultalaldehyde was added to the cultured to a final concentration of 2% and the cells were fixed for 1 hr., after which stained with a Diff-Quick (International Reagents Corporation). The cells were washed, dried with air and observed under a microscope.

SMILES	melting point	EC50 (rat C6 glioma cells)	formation of neurite network (PC12 cells)
Cn1ncc(/C=C/C(=O)Nc2ccc(Cn3cccn3)cc2)c1-c1ccc(F)cc1 [Example 161, (2E)-3-[5-(4-Fluorophenyl)-1-methyl-1H-pyrazol-4-yl]-N-[4-(1H-pyrazol-1-ylmethyl)phenyl]acrylamide]	189 to 191 °C	0.13 µM	promoted formation of neurite network
Cn1ncc(/C=C/C(=O)Nc2ccc(Cn3cnc4ccccc43)cc2)c1-c1ccc(F)cc1 [Example 185, (2E)-N-[4-(1H-Benzimidazol-1-ylmethyl)phenyl]-3-[5-(4-fluorophenyl)-1-methyl-1H-pyrazol-4-yl]acrylamide]	243 to 244 °C	0.3 µM	promoted formation of neurite network
Cn1ncc(/C=C/C(=O)Nc2ccc(CN3CCOCC3)cc2)c1-c1ccc(F)cc1 [Example 192, (2E)-3-[5-(4-Fluorophenyl)-1-methyl-1H-pyrazol-4-yl]-N-[4-(4-morpholinylmethyl)phenyl]acrylamide]	202 to 203 °C	0.54 µM	promoted formation of neurite network
Cn1ncc(/C=C/C(=O)Nc2ccc(CS(C)(=O)=O)cc2)c1-c1ccc(F)cc1 [Example 222, (2E)-3-[5-(4-fluorophenyl)-1-methyl-1H-pyrazol-4-yl]-N-(4-[(methylsulfonyl)methyl]phenyl)acrylamide]	251 to 252 °C	0.12 µM	promoted formation of neurite network
CCS(=O)(=O)Cc1ccc(NC(=O)/C=C/c2cnn(C)c2-c2ccc(F)cc2)cc1 [Example 223, (2E)-N-{4-[(Ethylsulfonyl)methyl]phenyl}-3-[5-(4-fluorophenyl)-1-methyl-1H-pyrazol-4-yl]acrylamide]	257 to 258 °C	0.036 µM	promoted formation of neurite network
